Experimental data reported in US20250019388A1, “STAT3 DEGRADERS AND USES THEREOF” (priority 2021, published 2025).

What was measured:
[1] = test system: other STAT family members or other cellular proteins; experiment: Proteome wide assessment in PBMC; format: cell-based
SU-DHL-1 xenografts = experiment: Antitumor activity in SU-DHL-1 cell-line xenograft model; format: in vivo, NOD SCID mice
Protocol: (§1) The antitumor efficacy of Compound A ammonium hydrogen salt was evaluated in immunocompromised mice implanted with human ALCL cell lines SU-DHL-1 and SUP-M2. Protocols for testing STAT3 degraders in human cell line xenograft models can be found, for example, in WO 2020/206424, incorporated herein by reference.
(§2) The antitumor activity of Compound A ammonium hydrogen salt was evaluated in a human SU-DHL-1 cell-line xenograft model established in NOD SCID female mice. Tumor bearing mice (n=5/group) were administered either 0 (vehicle; PBS), 5, 10, 15, or 45 mg/kg Compound A once weekly (QW; Days 0, 7, and 14) or 0 (vehicle; PBS), 10, or 30 mg/kg Compound A once every two weeks (Q2W; Days 0 and 14). Animals administered Compound A QW were monitored until Day 25 post first dose and those administered Compound A Q2W were monitored until Day 71 post first dose.

[2] = Body weight in SU-DHL-1 xenograft study; format: in vivo, NOD SCID mice; settings: IV route, SU-DHL-1 study
Protocol: as §2

STAT3 [3] = molecular target: T1, STAT3 (Homo sapiens, UniProt P40763); experiment: Phase 1 study, STAT3 degradation in blood (PBMCs); format: in vivo; set-up: Observed STAT3 degradation of 50-80% in PBMCs at Dose Level 1; from tissue; host or cells: blood / PBMCs of patients dosed IV with Compound A; settings: patients
T1 sequence (P40763 whole entry): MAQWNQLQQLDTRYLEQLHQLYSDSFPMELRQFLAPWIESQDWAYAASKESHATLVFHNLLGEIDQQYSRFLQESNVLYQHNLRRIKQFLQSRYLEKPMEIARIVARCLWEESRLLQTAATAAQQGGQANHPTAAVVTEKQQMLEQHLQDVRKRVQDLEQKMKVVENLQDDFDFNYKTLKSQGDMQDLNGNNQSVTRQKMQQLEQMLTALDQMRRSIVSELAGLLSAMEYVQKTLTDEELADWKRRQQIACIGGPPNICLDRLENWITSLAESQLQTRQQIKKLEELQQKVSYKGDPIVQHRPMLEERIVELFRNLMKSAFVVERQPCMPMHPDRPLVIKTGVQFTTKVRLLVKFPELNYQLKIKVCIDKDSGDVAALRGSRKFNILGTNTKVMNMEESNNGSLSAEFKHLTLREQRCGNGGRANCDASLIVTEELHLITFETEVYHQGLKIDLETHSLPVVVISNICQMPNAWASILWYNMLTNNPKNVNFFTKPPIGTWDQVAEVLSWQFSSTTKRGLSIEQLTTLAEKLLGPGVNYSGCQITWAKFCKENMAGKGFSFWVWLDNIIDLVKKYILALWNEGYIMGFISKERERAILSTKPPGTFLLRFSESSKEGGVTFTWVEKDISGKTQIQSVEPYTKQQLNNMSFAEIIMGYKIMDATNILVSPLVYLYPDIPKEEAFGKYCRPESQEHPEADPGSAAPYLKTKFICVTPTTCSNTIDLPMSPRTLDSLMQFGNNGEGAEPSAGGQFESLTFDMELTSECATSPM
Text: Rationale: Targeted protein degraders represent a new therapeutic class of compounds that utilize the ubiquitin proteasome system to target the specific degradation of proteins.

STAT3 [4] = experiment: STAT3 degradation potency in hepatocytes; format: cell-based; settings: across human, rat, and dog
[5] = Phase 1 study, safety and tolerability; format: in vivo, human; settings: patients, DL1
Protocol: Rationale: Targeted protein degraders represent a new therapeutic class of compounds that utilize the ubiquitin proteasome system to target the specific degradation of proteins. Compound A is a protein degrader that targets signal transducers and activators of transcription (STAT)3, a transcription factor that plays an important role in hematological malignancies such as lymphomas and in solid tumors. Compound A is administered via intravenous infusion (IV) at the dose levels defined in the protocol on Days 1, 8, 15, and 22 of each 28-day cycle.
Patients who provide informed consent and meet the eligibility criteria for the study will be enrolled and treated with Compound A IV on Days 1, 8, 15, and 22 of a 28-day cycle. Patients will remain on study treatment until disease progression, unacceptable toxicity, withdrawal of consent, any study-specific discontinuation criteria are met, or the Investigator determines that it is in the best interest of the patient to discontinue study treatment.
Phase 1a: This part aims to characterize the safety and tolerability of IV weekly doses of Compound A in sequential cohorts. […]

STAT3 [6] = molecular target: T2, STAT3 (Rattus norvegicus, UniProt P52631); experiment: PK/PD study in rats, STAT3 degradation in tissues; format: in vivo; settings: IV administration
T2 construct: from tissue
T2 sequence (P52631 whole entry): as the sequence (P40763 whole entry) above, with E311D, E760D counted along it

caspase 3/7 = experiment: Caspase 3/7 activity in ALCL lines; format: cell-based, human; settings: at similar concentrations
Aqueous solubility = format: physicochemical
Protocol: Compound A injection was manufactured as a frozen concentrated solution containing 10 mg/mL of free acid intended to be diluted with IV infusion vehicle. It has aqueous solubility greater than 10 mg/mL at pH 4.5 to 9.0 but less than 10 mg/mL at pH less than or equal to 3.

STAT3 [7] = molecular target: T1, STAT3; experiment: STAT3 degradation in human ALCL cell lines SU-DHL-1 and SUP-M2; format: cell-based; settings: SU-DHL-1 and SUP-M2 cell lines
SUP-M2 xenografts = experiment: Antitumor activity in SUP-M2 cell-line xenograft model; format: in vivo, NOD SCID mice; settings: for tumor regression: 2 day on/5 days off
Protocol: as §1
(§3) The antitumor activity of Compound A ammonium hydrogen salt was evaluated in a human SUP-M2 cell-line xenograft model established in NOD SCID female mice. Tumor bearing mice (n=5/group) were administered either 0 (vehicle; PBS), 10, 20, or 30 mg/kg Compound A QW (Days 0, 7, and 14), 10 or 20 mg/kg Compound A on a 2 days on/5 days off schedule (Days 0, 1, 7, 8, 14, and 15), or 0 (vehicle; PBS), 20, or 40 mg/kg Compound A Q2W (Days 0 and 14). Animals administered Compound A QW or 2 on/5 off were monitored until Day 25 post first dose, and those administered Compound A Q2W were monitored until Day 52 post first dose.

[8] = Body weight in SUP-M2 xenograft study; format: in vivo, NOD SCID mice; settings: IV route
Protocol: as §3

ALCL cell lines = experiment: Cellular phenotypic assays (GI50) in ALCL cell lines; format: cell-based; settings: Homo sapiens; several ALCL cell lines
SU-DHL-1 cell line = experiment: Washout experiments in the SU-DHL-1 cell line; format: cell-based, human
STAT3 [9] = molecular target: T1, STAT3; experiment: STAT3 degradation in tumor, SU-DHL-1 tumor xenograft murine model; format: in vivo, mice; set-up: from tissue; host or cells: SU-DHL-1 xenograft tumour in immunocompromised mice; settings: 10 mg/kg QW; observed for 48 hrs

CC(=O)N1CC[C@H]2CC[C@@H](C(=O)N[C@@H](CCC(N)=O)COc3cccc(CCCC(=O)N[C@H](C(=O)N4C[C@H](O)C[C@H]4C(=O)N[C@@H](C)c4ccc(-c5scnc5C)cc4)C(C)(C)C)c3Cl)N2C(=O)[C@@H](NC(=O)c2cc3cc(C(=O)P(=O)(O)O)ccc3[nH]2)C1 [Compound A, (2-(((5S,8S,10aR)-3-acetyl-8-(((S)-5-amino-1-(2-chloro-3-(4-(((S)-1-((2S,4R)-4-hydroxy-2-(((S)-1-(4-(4-methylthiazol-5-yl)phenyl)ethyl)carbamoyl)pyrrolidin-1-yl)-3,3-dimethyl-1-oxobutan-2-yl)amino)-4-oxobutyl)phenoxy)-5-oxopentan-2-yl)carbamoyl)-6-oxodecahydropyrrolo[1,2-a][1,5]diazocin-5-yl)carbamoyl)-1H-indole-5-carbonyl)phosphonic acid]
selectivity of degradation [1]: does not degrade other STAT family members or other cellular proteins
tumor growth inhibition (TGI) (SU-DHL-1 xenografts; 5 mg/kg QW IV): 79.9%
TGI (SU-DHL-1 xenografts; 10 mg/kg Q2W IV): 89.8%
tumor regression (SU-DHL-1 xenografts; 10 mg/kg QW IV): complete regression
tumor regression (SU-DHL-1 xenografts; 15 mg/kg QW IV): complete regressions
TGI (SU-DHL-1 xenografts; 30 mg/kg Q2W IV): 99.8%
tumor regression (SU-DHL-1 xenografts; 30 mg/kg Q2W IV, all animals): complete tumor regressions
tumor regression (SU-DHL-1 xenografts; 45 mg/kg QW IV): complete regressions
body weight change [2]: slight to moderate body weight increases
time of maximal STAT3 degradation post infusion (STAT3 [3]; DL1, Cycle 1 weeks 1 & 2): 24 to 96 h
STAT3 degradation in PBMCs (STAT3 [3]; Dose Level 1): 50-80%
duration of target degradation (STAT3 [3]; first dose level): At least 72 h
maximum STAT3 knockdown in blood (STAT3 [3]; first dose level): up to 86%
mean maximum STAT3 degradation in blood (STAT3 [3]; first dose level (DL1, 0.05 mg/kg IV), following first 2 doses of Cycle 1): 66%
degradation potency of STAT3 in hepatocytes (STAT3 [4]): comparable degradation potency
safety and tolerability (DLTs, SAEs) [5]: safe and well-tolerated with no DLTs or SAEs
degradation of STAT3 protein in tissues (STAT3 [6]): significant degradation of STAT3 protein in multiple tissues
caspase 3/7 activity, a marker of apoptosis (caspase 3/7): induced caspase 3/7 activity
solubility (Aqueous solubility; aqueous buffer, pH 4.5 to 9.0): > 10000 µg/mL
solubility (Aqueous solubility; pH 3, aqueous buffer, pH less than or equal to 3): < 10000 µg/mL
STAT3 degradation (concentration) (STAT3 [7]): ≤ 11.8 ± 2.3 nM
TGI (SUP-M2 xenografts; 10 mg/kg QW IV): 83.8%
tumor regression (SUP-M2 xenografts; 10 mg/kg): complete tumor regression in all animals
animals with complete tumor regression (SUP-M2 xenografts; 20 mg/kg Q2W): 4 of 5
animals with complete tumor regression (SUP-M2 xenografts; 20 mg/kg QW IV): 4 of 5
tumor regression (SUP-M2 xenografts; 20 mg/kg): complete tumor regression in all animals
animals with complete tumor regression (SUP-M2 xenografts; 30 mg/kg QW IV): 5 of 5
animals with complete tumor regression (SUP-M2 xenografts; 40 mg/kg Q2W): 5 of 5
body weight change [8]: little to slight body weight increases
GI50 (ALCL cell lines): 8.1 to 57.4 nM
duration of sustained STAT3 degradation after which irreversible growth inhibition occurred (SU-DHL-1 cell line): approximately 48 hr
STAT3 degradation in tumor (STAT3 [9]): greater than 90%
